Assay results from ChEMBL document CHEMBL3400040, “Antileishmanial pharmacomodulation in 8-nitroquinolin-2(1H)-one series” (Bioorg Med Chem, 2015).

How the values were obtained:
Leishmania donovani [1] = test: Antileishmanial activity against intracellular amastigote stage of Leishmania donovani MHOM/IN/00/DEVI infected in human THP1 cells assessed as decrease infected macrophages after 120 hrs by microscopy; format: functional, organism-based; details: THP-1, 120 h
Leishmania donovani [2] = test: Antileishmanial activity against promastigote stage of Leishmania donovani MHOM/IN/00/DEVI assessed as inhibition of metabolic activity after 72 hrs by MTT assay; format: functional, organism-based
[3] = (§1) Cytotoxicity against human HepG2 cells after 72 hrs by MTT assay; format: cell-based; details: HepG2 cells
[4] = Selectivity index, CC50 for human HepG2 cells to IC50 for promastigote stage of Leishmania donovani MHOM/IN/00/DEVI; format: functional
HepG2 = test: as §1; format: cell-based; details: hepg2, 72 h
THP-1 = test: Cytotoxicity against human THP1 cells after 72 hrs by MTT assay; format: cell-based; details: THP-1, 72 h
[5] = Cytotoxicity against mouse J774A.1 cells after 72 hrs by MTT assay; format: cell-based; details: J774.1, 72 h
Leishmania infantum = test: Antileishmanial activity against intracellular amastigote stage of Leishmania infantum MHOM/MA/67/ITMAP-263 expressing luciferase infected in mouse J774A1 cells assessed as inhibition of metabolic activity after 120 hrs by luminescence assay; format: functional, organism-based; details: MHOM/MA/67/ITMAP-263, J774.A1, 120 h
[6] = Leishmania donovani, MHOM/IN/00/DEVI, 72 h, read-out: IC50

Row | SMILES | IC50 (Leishmania donovani [2]; [6]) | CC50 at 72 h [3] | Ratio CC50/IC50 [4] | further results
1 | O=C(c1cccc([N+](=O)[O-])c1)c1ccc2ccc(/C=C/c3ccc(O)c(O)c3)nc2c1O | – | – | – | IC50 (Leishmania donovani [1]): 1.22 µM
2 | O=[N+]([O-])c1c(CS(=O)(=O)c2ccccc2)nc2c(Br)cc(Br)cn12 | – | – | – | IC50 (Leishmania donovani [1]): 5.5 µM
3 | Cc1nc2c(Cl)cccc2c(O)c1CN1CCCCC1C (stereo not given) | – | – | – | IC50 (Leishmania donovani [1]): 0.06 µM
4 | Nc1cccc2ccc(=O)[nH]c12 | > 50 µM | > 100 µM | – | –
5 | O=[N+]([O-])c1cccc2c(Br)cc(Br)nc12 | > 50 µM | > 100 µM | – | –
6 | O=c1cc(Br)c2cccc([N+](=O)[O-])c2[nH]1 | 9.6 µM | 27.1 µM | – | –
7 | O=c1cc(C#Cc2ccccc2)c2cccc([N+](=O)[O-])c2[nH]1 | 2.7 µM | 11.6 µM | 4.4 | –
8 | O=c1cc(C#Cc2ccc(Cl)cc2)c2cccc([N+](=O)[O-])c2[nH]1 | – | – | – | IC50 (Leishmania donovani [2]): ND(Insoluble); CC50 (HepG2): ND(Insoluble)
9 | COc1cccc(C#Cc2cc(=O)[nH]c3c([N+](=O)[O-])cccc23)c1 | > 10 µM | > 10 µM | – | –
10 | O=c1cc(C#CCOc2ccccc2)c2cccc([N+](=O)[O-])c2[nH]1 | 1.4 µM | 1.8 µM | 1.3 | –
11 | O=c1cc(C#CCO)c2cccc([N+](=O)[O-])c2[nH]1 | 2.4 µM | 2.1 µM | 0.9 | –
12 | O=c1cc(C#CCCO)c2cccc([N+](=O)[O-])c2[nH]1 | 21.8 µM | 15.9 µM | 0.7 | –
13 | CCC(O)CC#Cc1cc(=O)[nH]c2c([N+](=O)[O-])cccc12 (stereo not given) | 16.7 µM | 3.8 µM | 0.2 | –
14 | O=c1cc(-c2ccccc2)c2cccc([N+](=O)[O-])c2[nH]1 | 14.7 µM | 31.9 µM | 2.2 | –
15 | O=c1cc(-c2ccco2)c2cccc([N+](=O)[O-])c2[nH]1 | > 5 µM | > 31.3 µM | – | –
16 | Cc1ccc(-c2cc(=O)[nH]c3c([N+](=O)[O-])cccc23)s1 | > 5 µM | > 15.6 µM | – | –
17 | O=c1cc(-c2cccnc2)c2cccc([N+](=O)[O-])c2[nH]1 | > 50 µM | 10.1 µM | <1 | –

Row | SMILES | IC50 (Leishmania donovani [2]; [6]) | CC50 at 72 h [3] | Ratio CC50/IC50 [4] | further results
18 | O=c1cc(-c2ccncc2)c2cccc([N+](=O)[O-])c2[nH]1 | 77.2 µM | 15.7 µM | 0.2 | –
19 | O=c1cc(-c2ccc(C(F)(F)F)cc2)c2cccc([N+](=O)[O-])c2[nH]1 | 6.1 µM | 42.7 µM | 7 | IC50 (THP-1): > 31.3 µM; IC50 [5]: 33.4 µM; IC50 (Leishmania infantum): 11.8 µM; IC50 (Leishmania donovani [1]): > 20 µM
20 | O=c1cc(-c2ccc(Cl)cc2)c2cccc([N+](=O)[O-])c2[nH]1 | 4.2 µM | 16.1 µM | 3.8 | –
21 | O=c1cc(-c2ccc(Br)cc2)c2cccc([N+](=O)[O-])c2[nH]1 | 3.3 µM | > 31.3 µM | >9.5 | IC50 (THP-1): > 31.3 µM; IC50 [5]: 9 µM; IC50 (Leishmania infantum): > 20 µM; IC50 (Leishmania donovani [1]): > 15.6 µM
22 | O=c1cc(-c2ccc(F)cc2)c2cccc([N+](=O)[O-])c2[nH]1 | 28 µM | 36.1 µM | 1.3 | –
23 | Cc1ccc(-c2cc(=O)[nH]c3c([N+](=O)[O-])cccc23)cc1 | 9.1 µM | 31 µM | 3.4 | –
24 | COc1ccc(-c2cc(=O)[nH]c3c([N+](=O)[O-])cccc23)cc1 | 28 µM | 37.1 µM | 1.3 | –
25 | O=c1cc(-c2cccc(C(F)(F)F)c2)c2cccc([N+](=O)[O-])c2[nH]1 | > 5 µM | 14.7 µM | <2.9 | –
26 | CC(C)(C)OCc1cc(=O)[nH]c2c([N+](=O)[O-])cccc12 | > 50 µM | 5.3 µM | <0.1 | –
27 | CCCCCCCCCCCCc1cc(=O)[nH]c2c([N+](=O)[O-])cccc12 | – | – | – | IC50 (Leishmania donovani [2]): ND(Insoluble); CC50 (HepG2): ND(Insoluble)
28 | C[C@@H]1[C@H](O)[C@@H](C)/C=C/C=C/C=C/C=C/C=C/C=C/C=C/[C@H](O[C@@H]2O[C@H](C)[C@@H](O)[C@H](N)[C@@H]2O)C[C@@H]2O[C@](O)(C[C@@H](O)C[C@@H](O)[C@H](O)CC[C@@H](O)C[C@@H](O)CC(=O)O[C@H]1C)C[C@H](O)[C@H]2C(=O)O [AMPHOTERICIN B] | – | – | – | IC50 (THP-1): 8.4 µM; IC50 [5]: 2.5 µM; IC50 (Leishmania infantum): 0.06 µM; IC50 (Leishmania donovani [1]): 0.16 µM
29 | COc1cccc2c1C(=O)c1c(O)c3c(c(O)c1C2=O)C[C@@](O)(C(=O)CO)C[C@@H]3O[C@H]1C[C@H](N)[C@H](O)[C@H](C)O1 [DOXORUBICIN] | – | – | – | IC50 [5]: 0.06 µM
30 | CSc1ccc(OCc2ncc([N+](=O)[O-])n2C)cc1 [FEXINIDAZOLE] | – | – | – | EC50 (Leishmania donovani [1]): 2.8 µM
31 | CCCCCCCCCCCCCCCCOP(=O)([O-])OCC[N+](C)(C)C [MILTEFOSINE] | – | – | – | IC50 (THP-1): 40.5 µM; IC50 [5]: 90.4 µM; IC50 (Leishmania infantum): 4.2 µM; IC50 (Leishmania donovani [1]): 6.8 µM
32 | N=C(N)c1ccc(OCCCCCOc2ccc(C(=N)N)cc2)cc1 [PENTAMIDINE] | – | – | 0.4 | IC50 [5]: 1 µM; IC50 (Leishmania infantum): > 20 µM; IC50 (Leishmania donovani [1]): > 20 µM
33 | CCN(CC)CCCCCCNc1cc(OC)cc2c(C)ccnc12 [SITAMAQUINE] | – | – | – | IC50 (Leishmania donovani [1]): 1 µM
